# Test results taken from US12522601B2, “1,3,4-oxadiazole derivative compounds as histone deacetylase 6 inhibitor, and the pharmaceutical composition comprising the same” (CHONG KUN DANG PHARMACEUTICAL CORP., priority 2020, dated 2026).
# Columns and labels:
# human recombinant HDAC1 = biological target: T1, human recombinant HDAC1 (Homo sapiens, UniProt Q13547); assay: In vitro HDAC enzyme activity inhibition assay, HDAC1 (HDAC Fluorimetric Drug Discovery Kit); type: biochemical; conditions: human recombinant HDAC1, Fluor de Lys-SIRT1 substrate 10 μM, 30° C. for 60 minutes
# T1 construct: purchased Enzo Life Sciences, Inc. BML-SE456
# Summary of the method: (§1)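 Fluorimetric deacetylase kit; 0.3 μg human recombinant enzyme with 10 μM Fluor de Lys-SIRT1 substrate, 60 min at 30° C, then developer 30 min. Fluorescence read at Ex 360/Em 460; IC50 from 5-fold compound dilutions. HDAC1 and HDAC6 run by the same protocol.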
# human recombinant HDAC6 = biological target: T2, human recombinant HDAC6 (Homo sapiens, UniProt Q9UBN7); assay: In vitro HDAC enzyme activity inhibition assay, HDAC6 (HDAC Fluorimetric Drug Discovery Kit); type: biochemical; conditions: for HDAC6 Selectivity (fold): HDAC6 versus HDAC1; for IC50: human recombinant HDAC6, same protocol as the HDAC1 test
# T2 construct: purchased Calbiochem Inc. 382180
# T2 sequence (Q9UBN7 1-1215): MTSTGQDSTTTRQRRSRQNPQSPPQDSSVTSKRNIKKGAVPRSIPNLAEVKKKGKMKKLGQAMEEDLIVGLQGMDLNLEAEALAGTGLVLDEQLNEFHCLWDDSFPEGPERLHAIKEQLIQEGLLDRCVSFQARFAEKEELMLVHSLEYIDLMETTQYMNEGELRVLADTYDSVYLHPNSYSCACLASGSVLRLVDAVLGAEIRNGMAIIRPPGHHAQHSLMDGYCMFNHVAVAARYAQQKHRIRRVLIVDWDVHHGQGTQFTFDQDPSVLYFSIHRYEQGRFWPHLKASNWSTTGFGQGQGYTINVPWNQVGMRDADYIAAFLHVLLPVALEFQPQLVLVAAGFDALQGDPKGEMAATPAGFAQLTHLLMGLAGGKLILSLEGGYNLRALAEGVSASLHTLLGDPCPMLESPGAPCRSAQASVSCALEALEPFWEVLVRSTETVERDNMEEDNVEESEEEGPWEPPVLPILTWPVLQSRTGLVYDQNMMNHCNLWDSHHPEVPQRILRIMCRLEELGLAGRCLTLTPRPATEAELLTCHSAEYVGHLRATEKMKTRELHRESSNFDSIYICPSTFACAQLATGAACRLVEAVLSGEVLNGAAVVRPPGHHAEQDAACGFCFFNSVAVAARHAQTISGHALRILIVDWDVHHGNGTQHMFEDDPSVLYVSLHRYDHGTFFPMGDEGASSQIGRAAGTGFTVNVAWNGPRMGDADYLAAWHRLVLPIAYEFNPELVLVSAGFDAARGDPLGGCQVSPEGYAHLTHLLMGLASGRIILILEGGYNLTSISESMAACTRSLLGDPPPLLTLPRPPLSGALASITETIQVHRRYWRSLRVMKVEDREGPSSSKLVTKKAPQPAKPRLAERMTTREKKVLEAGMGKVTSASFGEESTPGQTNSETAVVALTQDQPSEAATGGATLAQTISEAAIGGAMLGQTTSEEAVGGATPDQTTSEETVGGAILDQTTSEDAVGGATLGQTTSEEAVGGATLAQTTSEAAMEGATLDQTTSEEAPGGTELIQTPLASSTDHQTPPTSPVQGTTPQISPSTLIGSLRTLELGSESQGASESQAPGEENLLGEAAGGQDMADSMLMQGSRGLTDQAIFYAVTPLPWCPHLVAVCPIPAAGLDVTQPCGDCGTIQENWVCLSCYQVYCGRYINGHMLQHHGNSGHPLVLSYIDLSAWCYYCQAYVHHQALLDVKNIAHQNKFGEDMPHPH
# Summary of the method: as §1
# T1 sequence (Q13547 whole entry): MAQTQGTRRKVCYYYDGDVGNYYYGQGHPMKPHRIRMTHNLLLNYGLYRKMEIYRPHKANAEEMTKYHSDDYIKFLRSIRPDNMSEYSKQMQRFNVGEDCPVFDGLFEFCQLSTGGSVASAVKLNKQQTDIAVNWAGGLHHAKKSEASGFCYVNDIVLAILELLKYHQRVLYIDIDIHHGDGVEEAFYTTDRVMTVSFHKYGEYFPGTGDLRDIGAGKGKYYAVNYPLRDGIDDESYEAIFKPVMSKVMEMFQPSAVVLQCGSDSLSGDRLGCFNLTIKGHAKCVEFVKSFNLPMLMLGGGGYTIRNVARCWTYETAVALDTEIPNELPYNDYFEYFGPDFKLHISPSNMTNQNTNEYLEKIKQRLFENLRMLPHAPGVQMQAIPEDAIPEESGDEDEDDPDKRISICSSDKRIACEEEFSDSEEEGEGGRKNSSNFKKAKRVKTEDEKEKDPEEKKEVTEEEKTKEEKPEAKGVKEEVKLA
IC50 (human recombinant HDAC1),HDAC6 Selectivity (fold) (human recombinant HDAC6),IC50 (human recombinant HDAC6),Structure (SMILES)
> 50 µM,203 fold,0.247 µM,"O=C(N1CCN(c2ccccn2)CC1)N(Cc1cn2ccc(-c3nnc(C(F)F)o3)cc2n1)c1ccccc1 [Compound 4048, N-((7-(5-(difluoromethyl)-1,3,4-oxadiazol-2-yl)imidazo[1,2-a]pyridin-2-yl)methyl)-N-phenyl-4-(pyridin-2-yl)piperazine-1-carboxamide]"
> 50 µM,160 fold,0.313 µM,"FC(F)c1nnc(-c2ccn3cc(Cc4ccc5c(c4)OCO5)nc3c2)o1 [Compound 3596, 2-(2-(benzo[d][1,3]dioxol-5-ylmethyl)imidazo[1,2-a]pyridin-7-yl)-5-(difluoromethyl)-1,3,4-oxadiazole]"
> 50 µM,122 fold,0.411 µM,"O=C(C1CCN(C2CCC(F)(F)CC2)CC1)N(Cc1cn2ccc(-c3nnc(C(F)F)o3)cc2n1)c1ccccc1 [Compound 4121, 1-(4,4-difluorocyclohexyl)-N-((7-(5-(difluoromethyl)-1,3,4-oxadiazol-2-yl)imidazo[1,2-a]pyridin-2-yl)methyl)-N-phenylpiperidine-4-carboxamide]"
> 50 µM,384 fold,0.13 µM,"O=C(N1CCN(C(=O)C(F)(F)F)CC1)N(Cc1cn2ccc(-c3nnc(C(F)F)o3)cc2n1)c1ccccc1 [Compound 4044, N-((7-(5-(difluoromethyl)-1,3,4-oxadiazol-2-yl)imidazo[1,2-a]pyridin-2-yl)methyl)-N-phenyl-4-(2,2,2-trifluoroacetyl)piperazine-1-carboxamide]"
> 50 µM,174 fold,0.287 µM,"Fc1cccc(OCc2cn3ccc(-c4nnc(C(F)F)o4)cc3n2)c1 [Compound 3722, 2-(difluoromethyl)-5-(2-((3-fluorophenoxy)methyl)imidazo[1,2-a]pyridin-7-yl)-1,3,4-oxadiazole]"
> 50 µM,122 fold,0.41 µM,"O=C(C1CN(C2COC2)C1)N(Cc1cn2ccc(-c3nnc(C(F)F)o3)cc2n1)c1ccccc1 [Compound 4163, N-((7-(5-(difluoromethyl)-1,3,4-oxadiazol-2-yl)imidazo[1,2-a]pyridin-2-yl)methyl)-1-(oxetan-3-yl)-N-phenylazetidine-3-carboxamide]"
> 50 µM,159 fold,0.314 µM,"CC(C)N1CCC(C(=O)N(Cc2cn3ccc(-c4nnc(C(F)F)o4)cc3n2)c2ccccc2)CC1 [Compound 4116, N-((7-(5-(difluoromethyl)-1,3,4-oxadiazol-2-yl)imidazo[1,2-a]pyridin-2-yl)methyl)-1-isopropyl-N-phenylpiperidine-4-carboxamide]"
> 50 µM,234 fold,0.214 µM,"O=C(C1CCC1)N1CCC(C(=O)N(Cc2cn3ccc(-c4nnc(C(F)F)o4)cc3n2)c2cccc(F)c2)CC1 [Compound 4150, 1-(cyclobutanecarbonyl)-N-((7-(5-(difluoromethyl)-1,3,4-oxadiazol-2-yl)imidazo[1,2-a]pyridine-2-yl)methyl)-N-(3-fluorophenyl)piperidine-4-carboxamide]"
> 50 µM,160 fold,0.312 µM,"CS(=O)(=O)N1CC(C(=O)N(Cc2cn3ccc(-c4nnc(C(F)F)o4)cc3n2)c2ccccc2)C1 [Compound 4173, N-((7-(5-(difluoromethyl)-1,3,4-oxadiazol-2-yl)imidazo[1,2-a]pyridin-2-yl)methyl)-1-(methylsulfonyl)-N-phenylazetidine-3-carboxamide]"
> 50 µM,302 fold,0.166 µM,"O=C(C1CCC1)N1CCN(C(=O)N(Cc2cn3ccc(-c4nnc(C(F)F)o4)cc3n2)c2ccccc2)CC1 [Compound 4043, 4-(cyclobutanecarbonyl)-N-((7-(5-(difluoromethyl)-1,3,4-oxadiazol-2-yl)imidazo[1,2-a]pyridine-2-yl)methyl)-N-phenylpiperazine-1-carboxamide]"
> 50 µM,485 fold,0.103 µM,"CC(C)N1CCN(C(=O)N(Cc2cn3ccc(-c4nnc(C(F)F)o4)cc3n2)c2ccccc2)CC1 [Compound 4034, N-((7-(5-(difluoromethyl)-1,3,4-oxadiazol-2-yl)imidazo[1,2-a]pyridin-2-yl)methyl)-4-isopropyl-N-phenylpiperazine-1-carboxamide]"
> 50 µM,226 fold,0.221 µM,"Fc1cccc(NCc2cn3ccc(-c4nnc(C(F)F)o4)cc3n2)c1 [Compound 3670, N-((7-(5-(difluoromethyl)-1,3,4-oxadiazol-2-yl)imidazo[1,2-a]pyridin-2-yl)methyl)-3-fluoroaniline]"
> 50 µM,133 fold,0.375 µM,"CN(C)C(=O)N1CCC(C(=O)N(Cc2cn3ccc(-c4nnc(C(F)F)o4)cc3n2)c2ccccc2)CC1 [Compound 4130, N4-((7-(5-(difluoromethyl)-1,3,4-oxadiazol-2-yl)imidazo[1,2-a]pyridin-2-yl)methyl)-N1,N1-dimethyl-N4-phenylpiperidine-1,4-dicarboxamide]"
> 50 µM,124 fold,0.402 µM,"O=C(C1CCN(C2CCCCC2)CC1)N(Cc1cn2ccc(-c3nnc(C(F)F)o3)cc2n1)c1ccccc1 [Compound 4119, 1-cyclohexyl-N-((7-(5-(difluoromethyl)-1,3,4-oxadiazol-2-yl)imidazo[1,2-a]pyridin-2-yl)methyl)-N-phenylpiperidine-4-carboxamide]"
> 50 µM,109 fold,0.457 µM,"CC(=O)c1ccc(Cc2cn3ccc(-c4nnc(C(F)F)o4)cc3n2)cc1 [Compound 3592, 1-(4-((7-(5-(difluoromethyl)-1,3,4-oxadiazol-2-yl)imidazo[1,2-a]pyridin-2-yl)methyl)phenyl)ethan-1-one]"
> 50 µM,194 fold,0.257 µM,"O=C(N1CCN(C2CCC(F)(F)CC2)CC1)N(Cc1cn2ccc(-c3nnc(C(F)F)o3)cc2n1)c1cccc(F)c1 [Compound 4091, 4-(4,4-difluorocyclohexyl)-N-((7-(5-(difluoromethyl)-1,3,4-oxadiazol-2-yl)imidazo[1,2-a]pyridin-2-yl)methyl)-N-(3-fluorophenyl)piperazine-1-carboxamide]"
> 50 µM,395 fold,0.127 µM,"CC(C)N1CC(C(=O)N(Cc2cn3ccc(-c4nnc(C(F)F)o4)cc3n2)c2cccc(F)c2)C1 [Compound 4190, N-((7-(5-(difluoromethyl)-1,3,4-oxadiazol-2-yl)imidazo[1,2-a]pyridin-2-yl)methyl)-N-(3-fluorophenyl)-1-isopropylazetidine-3-carboxamide]"
> 50 µM,237 fold,0.211 µM,"FC(F)c1nnc(-c2ccn3cc(COc4ccccc4)nc3c2)o1 [Compound 3719, 2-(difluoromethyl)-5-(2-(phenoxymethyl)imidazo[1,2-a]pyridin-7-yl)-1,3,4-oxadiazole]"
> 50 µM,386 fold,0.13 µM,"Fc1cccc(Cc2cn3ccc(-c4nnc(C(F)F)o4)cc3n2)c1 [Compound 3585, 2-(difluoromethyl)-5-(2-(3-fluorobenzyl)imidazo[1,2-a]pyridin-7-yl)-1,3,4-oxadiazole]"
> 50 µM,121 fold,0.413 µM,"Cc1cccc(OCc2cn3ccc(-c4nnc(C(F)F)o4)cc3n2)c1 [Compound 3720, 2-(difluoromethyl)-5-(2-((m-tolyloxy)methyl)imidazo[1,2-a]pyridin-7-yl)-1,3,4-oxadiazole]"
